Experimental data: ChEMBL document CHEMBL1201862, “PubChem BioAssay data set” (2004)
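Each compound was tested at five concentrations against cells in 96-well plates for 48 hours. GI50 marks 50% less growth.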 Activity calls are given as the source filed them. No stated cut-off is given here; in the data, active = GI50 up to about 1.1 µM and inactive = higher.

How the values were obtained:
Assay in all cases: inhibition of tumour cell growth, NCI panel, 48 h
[1] = tested on: A498
[2] = tested on: A549
[3] = tested on: COLO 205
[4] = tested on: HCC 2998
[5] = tested on: HOP-62
[6] = tested on: HT-29
[7] = tested on: RPMI-8226
[8] = tested on: RXF 393
[9] = tested on: SF-268
[10] = tested on: SF-295
[11] = tested on: SK-OV-3
[12] = tested on: SN12C
[13] = tested on: SNB-19
[14] = tested on: SNB-75
[15] = tested on: SW-620
[16] = tested on: UACC-62
[17] = tested on: UO-31

Measured: GI50

COc1cccc(C=O)c1[O-].COc1cccc(C=O)c1[O-].[Zn+2]
inactive: [1] > 100 µM | [2] > 100 µM | [3] > 100 µM | [4] > 100 µM | [5] 46.9 µM | [6] 97.7 µM | [7] 49.1 µM | [8] > 100 µM | [9] 55.7 µM | [10] 23.3 µM | [11] 36.6 µM | [12] 39.7 µM | [13] > 100 µM | [14] 42 µM | [15] 56.1 µM | [16] 46.2 µM | [17] 28.2 µM

COc1ccccc1C1c2cc3c(cc2OC(O)(CO)C1C(=O)O)OCO3.COc1ccccc1C1c2cc3c(cc2OC2(O)COC(=O)C12)OCO3 (stereo not drawn)
inactive: [1] > 100 µM | [2] > 100 µM | [3] > 100 µM | [4] > 100 µM | [5] > 100 µM | [6] > 100 µM | [7] > 100 µM | [8] > 100 µM | [9] > 100 µM | [10] > 100 µM | [11] > 100 µM | [12] > 100 µM | [14] 26.9 µM | [15] > 100 µM | [16] > 100 µM | [17] > 100 µM

CCOC1C(Br)Cn2c(=O)c3cc4ccccc4cc3c(=O)n2C1C (stereo not drawn)
inactive: [1] 12.2 µM | [2] 67.3 µM | [3] 56.6 µM | [4] 50.6 µM | [5] > 100 µM | [6] 27.5 µM | [7] 33.8 µM | [8] > 100 µM | [9] > 100 µM | [10] 71.8 µM | [11] > 100 µM | [12] > 100 µM | [13] > 100 µM | [14] 39.4 µM | [15] 91.8 µM | [17] 78.5 µM

O=C1CCCCC1C1(O)C(=O)Nc2cc(F)ccc21 (stereo not drawn)
inactive: [1] > 100 µM | [2] > 100 µM | [3] > 100 µM | [4] > 100 µM | [5] > 100 µM | [6] > 100 µM | [7] > 100 µM | [8] > 100 µM | [9] > 100 µM | [10] > 100 µM | [11] > 100 µM | [12] > 100 µM | [13] > 100 µM | [14] > 100 µM | [15] > 100 µM | [16] > 100 µM | [17] > 100 µM

Cc1cccc(C)c1NC(=O)CCCC(=O)C1CCC/C1=N\NC(=O)C(=O)NN (stereo not drawn)
inactive: [1] > 100 µM | [2] > 100 µM | [3] > 100 µM | [4] > 100 µM | [6] > 100 µM | [7] > 100 µM | [8] 24.5 µM | [9] > 100 µM | [10] > 100 µM | [11] > 100 µM | [12] > 100 µM | [13] > 100 µM | [14] > 100 µM | [15] > 100 µM | [17] > 100 µM

COC(=O)c1c2c(c(-c3ccccc3)c3c1-c1nc(Cl)ccc1CC3)CCc1ccc(Cl)nc1-2
inactive: [1] > 100 µM | [2] > 100 µM | [3] > 100 µM | [4] > 100 µM | [5] > 100 µM | [6] > 100 µM | [7] > 100 µM | [8] 47.5 µM | [9] 78.5 µM | [10] 44.6 µM | [11] > 100 µM | [12] > 100 µM | [13] 64 µM | [14] 32.3 µM | [15] > 100 µM | [16] 71.6 µM | [17] > 100 µM
